According to PMC8161026, “Synthesis and Anticancer Activity Evaluation of 5-[2-Chloro-3-(4-nitrophenyl)-2-propenylidene]-4-thiazolidinones” (Molecules, 2021):

Legend:
[1] = tested on: Breast Cancer subpanel; assay: cells
Description: (§1) At the first stage of biological activity study, the antitumor activity screening of the selected compounds 2b, 2c, 2f, 2h, and 2j was performed according to the NCI DTP (USA) standard protocol at the concentrations ranging from 10^−4 to 10^−8 M toward 60 tumor cell lines. The percentage of growth was evaluated spectrophotometrically versus controls not treated with test agents after 48 h exposure and using SRB protein assay to estimate cell viability or growth. Dose–response parameters were calculated for each cell line: GI50—molar concentration of the compound that inhibits 50% net cell growth; TGI—molar concentration of the compound leading to the total inhibition; and LC50—molar concentration of the compound leading to 50% net cell death. Furthermore, mean graph midpoints (MG_MID) were calculated for each of the parameters, giving an average activity parameter over all cell lines for the tested compound. For the MG_MID calculation, insensitive cell lines were included with the highest concentration tested.
(§2) The selectivity index (SI) obtained by dividing the full panel MG-MID (mM) of the tested compound by their individual subpanel MG-MID (mM) was considered as a measure of selectivity of anticancer activity (Table 3).
(§3) Primary anticancer assay was performed on a panel of approximately sixty human tumor cell lines derived from nine neoplastic diseases, in accordance with the protocol of the Drug Evaluation Branch, National Cancer Institute, Bethesda. Tested compounds were added to the culture at a single concentration (10^−5 M) and the cultures were incubated for 48 h. End point determinations were made with a protein binding dye, sulforhodamine B (SRB). […] The percentage growth was evaluated spectrophotometrically versus controls not treated with test agents.
(§4) Dose–response parameters (GI50, TGI, LC50) were calculated for each compound. […] The drug concentration resulting in total growth inhibition (TGI) was calculated from Ti = Tz. The LC50 (concentration of drug resulting in a 50% reduction in the measured protein at the end of the drug treatment as compared to that at the beginning) indicating a net loss of cells following treatment was calculated from [(Ti − Tz)/Tz] × 100 = −50 (2). Values were calculated for each of these parameters if the level of activity was reached; however, if the effect was not reached or was excessive, the value for that parameter was expressed as more or less than the maximum or minimum concentration tested.

[2] = tested on: CNS Cancer subpanel; assay: cells
Description: as §1, §2, §3, §4

[3] = tested on: Colon Cancer subpanel; assay: cells
Description: as §1, §2, §3, §4

[4] = tested on: Leukemia subpanel; assay: cells
Description: as §1, §2, §3, §4

[5] = tested on: Melanoma subpanel; assay: cells
Description: as §1, §2, §3, §4

[6] = tested on: Non-Small Cell Lung Cancer subpanel; assay: cells
Description: as §1, §2, §3, §4

[7] = tested on: Ovarian Cancer subpanel; assay: cells
Description: as §1, §2, §3, §4

[8] = tested on: Prostate Cancer subpanel; assay: cells
Description: as §1, §2, §3, §4

[9] = tested on: Renal Cancer subpanel; assay: cells
Description: as §1, §2, §3, §4

[10] = tested on: 60 tumor cell lines; assay: NCI60 full panel MG_MID
Description: as §1, §3, §4

[11] = tested on: K-562
[12] = tested on: A549/ATCC; conditions: A549/ATCC (Non-Small Cell Lung Cancer), 48 h, SRB
[13] = tested on: NCI-H23; conditions: NCI-H23 (Non-Small Cell Lung Cancer), 48 h, SRB
[14] = tested on: HCT-116; conditions: HCT-116 (Colon Cancer), 48 h, SRB
[15] = tested on: 786-0; conditions: 786-0 (Renal Cancer), 48 h, SRB
[16] = tested on: LOX IMVI; assay: cells; conditions: Homo sapiens, 48 h
[17] = tested on: NCI-322M; assay: NCI DTP 60 cell line screen, SRB; conditions: 48 h
[18] = tested on: HCT-15; assay: NCI DTP 60 cell line screen, SRB
[19] = tested on: M14; assay: NCI DTP 60 cell line screen, SRB
[20] = tested on: SK-OV-3; assay: NCI DTP 60 cell line screen, SRB
[21] = Homo sapiens, read-out: MG_MID, GI50
[22] = Homo sapiens, read-out: MG_MID, LC50
[23] = full panel MG_MID / Breast Cancer subpanel MG_MID
[24] = full panel MG_MID / CNS Cancer subpanel MG_MID
[25] = full panel MG_MID / Colon Cancer subpanel MG_MID
[26] = full panel MG_MID / Leukemia subpanel MG_MID
[27] = full panel MG_MID / Melanoma subpanel MG_MID
[28] = full panel MG_MID / Non-Small Cell Lung Cancer subpanel MG_MID
[29] = full panel MG_MID / Ovarian Cancer subpanel MG_MID
[30] = full panel MG_MID / Prostate Cancer subpanel MG_MID
[31] = full panel MG_MID / Renal Cancer subpanel MG_MID

O=C(O)C(Cc1ccccc1)N1C(=O)/C(=C/C(Cl)=C/c2ccc([N+](=O)[O-])cc2)SC1=S (centres unmarked) [Compound 2j, 2-{5-[(Z,2Z)-2-Chloro-3-(4-nitrophenyl)-2-propenylidene]-4-oxo-2-thioxothiazolidin-3-yl}-3-phenylpropanoic acid]
MG_MID, TGI ([1]; Breast Cancer panel mean): 37.0 µM | GI50 [1, 21]: 24.6 µM | CC50 [1, 22]: 84.6 µM | SI (selectivity index), GI50 [1, 23]: 0.17 | SI (selectivity index), LC50 [1, 23]: 0.87 | SI (selectivity index), TGI [1, 23]: 1.10 | GI50 [2, 21]: 2.18 µM | CC50 [2, 22]: 7.21 µM | SI (selectivity index), GI50 [2, 24]: 1.88 | SI (selectivity index), LC50 [2, 24]: 10.25 | SI (selectivity index), TGI [2, 24]: 11.53 | MG_MID, TGI ([3]; Colon Cancer panel mean): 18.7 µM | GI50 [3, 21]: 2.19 µM | CC50 [3, 22]: 67.4 µM | SI (selectivity index), GI50 [3, 25]: 1.87 | SI (selectivity index), LC50 [3, 25]: 1.10 | SI (selectivity index), TGI [3, 25]: 2.17 | TI (Therapeutic Index) ([4]; GI50 (normal blood lymphocyte)/GI50 (Leukemia Panel)): 16.60 | GI50 [4, 21]: 2.95 µM | CC50 [4, 22]: > 100 µM | MG_MID, TGI ([4]; Leukemia panel mean): >100 µM | SI (selectivity index), GI50 [4, 26]: 1.39 | SI (selectivity index), LC50 [4, 26]: <0.74 | SI (selectivity index), TGI [4, 26]: <0.41 | GI50 [5, 21]: 2 µM | CC50 [5, 22]: 50.6 µM | MG_MID, TGI ([5]; Melanoma panel mean): 17.9 µM | SI (selectivity index), GI50 [5, 27]: 2.05 | SI (selectivity index), LC50 [5, 27]: 1.46 | SI (selectivity index), TGI [5, 27]: 2.27 | GI50 [6, 21]: 13.1 µM | CC50 [6, 22]: 92.9 µM | MG_MID, TGI ([6]; Non-Small Cell Lung Cancer panel mean): 36.9 µM | SI (selectivity index), GI50 [6, 28]: 0.31 | SI (selectivity index), LC50 [6, 28]: 0.80 | SI (selectivity index), TGI [6, 28]: 1.10 | GI50 [7, 21]: 3 µM | CC50 [7, 22]: 84.5 µM | MG_MID, TGI ([7]; Ovarian Cancer panel mean): 68.6 µM | SI (selectivity index), GI50 [7, 29]: 1.36 | SI (selectivity index), LC50 [7, 29]: 0.87 | SI (selectivity index), TGI [7, 29]: 0.59 | GI50 [8, 21]: 2.3 µM | CC50 [8, 22]: 55.9 µM | MG_MID, TGI ([8]; Prostate Cancer panel mean): 6.27 µM | SI (selectivity index), GI50 [8, 30]: 1.78 | SI (selectivity index), LC50 [8, 30]: 1.32 | SI (selectivity index), TGI [8, 30]: 6.48 | GI50 [9, 21]: 2.03 µM | CC50 [9, 22]: 42.6 µM | MG_MID, TGI ([9]; Renal Cancer panel mean): 27.8 µM | SI (selectivity index), GI50 [9, 31]: 2.01 | SI (selectivity index), LC50 [9, 31]: 1.73 | SI (selectivity index), TGI [9, 31]: 1.46 | GI50 ([10]; Homo sapiens, read-out: 60 lines MG_MID, GI50): 4.09 µM | CC50 ([10]; Homo sapiens, read-out: 60 lines MG_MID, LC50): 73.9 µM | 60 lines MG_MID, TGI ([10]; mean over all cell lines): 40.6 µM | TI (Therapeutic Index) ([11]; GI50 (normal blood lymphocyte)/GI50 (K-562)): 16.27 | TGI ([11]; K-562 (Leukemia), 48 h, SRB): > 100 µM | TGI [12]: > 100 µM | TGI [13]: 4.86 µM | TGI [14]: 5.47 µM | TGI [15]: 5.01 µM | GI50 [16]: 1.64 µM | CC50 ([16]; read-out: LC50): 6.46 µM | GI50 ([17]; Homo sapiens, NCI-322M): > 100 µM | CC50 ([17]; Homo sapiens, NCI-322M, read-out: LC50): > 100 µM | TGI ([17]; NCI-322M (Non-Small Cell Lung Cancer), SRB): >100/>100/>100 μM | TGI ([18]; HCT-15 (Colon Cancer), 48 h, SRB): 4.58 µM | GI50 ([18]; Homo sapiens, HCT-15, 48 h): 1.92 µM | CC50 ([18]; Homo sapiens, HCT-15, 48 h, read-out: LC50): > 100 µM | GI50 ([19]; Homo sapiens, M14, 48 h): 2.53 µM | CC50 ([19]; Homo sapiens, M14, 48 h, read-out: LC50): > 100 µM | TGI ([19]; M14 (Melanoma), 48 h, SRB): > 100 µM | GI50 ([20]; Homo sapiens, SK-OV-3, 48 h): 4.13 µM | CC50 ([20]; Homo sapiens, SK-OV-3, 48 h, read-out: LC50): > 100 µM | TGI ([20]; SK-OV-3 (Ovarian Cancer), 48 h, SRB): > 100 µM
